From US20020073447A1, “Acquired resistance genes and uses thereof” (priority 1996, published 2002)

Key:
NPR1-GFP = target: T1, NPR1-GFP (Arabidopsis thaliana, UniProt P93002); assay: Subcellular localization of NPR1-GFP by confocal microscopy; assay type: in vivo; details: 35S-NPR1-GFP eleven-day-old seedlings grown on MS with SA or INA
T1 construct: expressed in transfected cells; host or cells: Transgenic Arabidopsis npr1-1 and npr1-2 mutant plants (seedlings; leaf mesophyll and guard cells), CaMV 35S promoter
T1 sequence (P93002 1-593): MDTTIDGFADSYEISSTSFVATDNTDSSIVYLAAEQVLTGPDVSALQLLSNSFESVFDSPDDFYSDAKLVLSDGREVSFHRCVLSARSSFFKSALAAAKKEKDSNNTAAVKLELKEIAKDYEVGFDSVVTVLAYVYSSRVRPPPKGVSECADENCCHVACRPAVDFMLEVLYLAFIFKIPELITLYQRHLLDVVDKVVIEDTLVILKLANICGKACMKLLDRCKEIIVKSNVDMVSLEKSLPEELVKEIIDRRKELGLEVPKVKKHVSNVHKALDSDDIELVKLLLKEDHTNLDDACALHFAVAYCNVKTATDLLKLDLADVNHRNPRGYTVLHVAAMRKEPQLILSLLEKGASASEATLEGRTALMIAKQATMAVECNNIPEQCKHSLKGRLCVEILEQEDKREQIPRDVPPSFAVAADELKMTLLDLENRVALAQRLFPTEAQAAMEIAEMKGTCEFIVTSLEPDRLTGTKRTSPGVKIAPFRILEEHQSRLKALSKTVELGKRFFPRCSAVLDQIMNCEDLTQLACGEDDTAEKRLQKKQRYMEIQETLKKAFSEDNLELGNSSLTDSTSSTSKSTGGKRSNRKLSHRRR
Protocol: To elucidate the induction mechanism and the molecular function of the protein, the subcellular localization of NPR1 was determined by using standard reporter gene fusion construct analysis. The green fluorescent protein (GFP) gene was fused to the carboxyl end of the NPR1 cDNA driven by the constitutive CaMV 35S promoter, and the 35S-NPR1-GFP construct was used to transform npr1 mutants, npr1-1 and npr1-2, according to standard methods.
To examine the subcellular localization of the NPR1 protein, the 35S-NPR1-GFP and 35S-mGFP transgenic lines were grown in MS medium in the presence or absence of the SAR-inducing chemicals SA or INA. Eleven-day-old seedlings were subsequently examined using confocal microscopy to detect localization of NPR1-GFP and mGFP. […] In the 35S-mGFP transformants, green fluorescence was detected in the cytoplasm as well as in the nuclei, and SA and INA treatments had no effect on the localization of the protein. […] In the guard cells, the NPR1 protein was localized in the nuclei even without an SAR induction, an intriguing observation because constitutive activation of defense mechanisms in these cells may be necessary to fend off microbial pathogens from gaining entry into the plant through stomata. […] Consistent with this, the following two potential nuclear localization sequences (NLS's) were found in NPR1: […]

[1] = system: Pseudomonas syringae pv maculicola ES4326; assay: Growth of P.s. maculicola ES4326 in SA-/INA-pretreated plants; assay type: in vivo; details: for growth of P.s. maculicola ES4326 lower than the untreated control / growth of P.s. maculicola ES4326: wild-type plants treated two days before infection; for growth of P.s. maculicola ES4326: 0 to 3.0 days after infiltration
Arabidopsis thaliana = assay: Plant tolerance to SA or INA treatment (growth, symptoms); assay type: in vivo; details: wild-type and npr1-1 plants; 1 mM SA, 0.65 mM INA
PR1 gene = assay: RNA blot analysis of PR1 induction; assay type: in vivo, Arabidopsis thaliana; details: leaves in 0.5 mM INA for twenty-four hours, or SA
Protocol: Transformants of npr1-2 were grown (22° C. in fourteen hours of light) and selected on MS medium agar (Murashige and Skoog, Physiol Plant. 15:473-497, 1962) containing 2% sucrose, 50 μg/mL kanamycin, and 100 μg/mL ampicillin. Kanamycin-resistant transformants which developed true leaves and healthy roots were transplanted to soil. After two weeks of growth in soil at 22° C. in fourteen hours of light per day, leaves were collected from three transformants of each cosmid clone and soaked in 0.5 mM INA solution for twenty-four hours at 22° C. in fourteen hours of light per day. Leaf tissues were then collected and frozen in liquid nitrogen. Total RNA was extracted from these leaf tissues, and an RNA blot was prepared as described by Cao et al. (Plant Cell 6:1583-1592, 1994). The blot was probed with a PR1-specific probe (a PCR product obtained by amplifying genomic Arabidopsis DNA with PR1-specific primers (sense primer 5′ […]3′ (SEQ ID NO: 19); anti-sense primer 5′ […]3′ (SEQ ID NO: 20)).
These variations were likely to be the result of “position-effects,” the effect of the insertion site in the chromosome on the expression of the transgene. Cosmid clones 21A4-4-3-1, 21A4-6-1-1, 21A4-P5-1, and 21A4-2-1 restored the ability of the npr1-2 mutant to respond to INA induction and, therefore, complemented the npr1-2 mutation.
Transformants carrying each cosmid were also tested for SA induction of PR1 expression by RNA blot analysis Examples of SA induction are shown in FIG. 2A.

BGL2-GUS reporter gene = assay: Quantitative GUS assay of BGL2-GUS reporter plants grown on SA or INA; assay type: in vivo, Arabidopsis thaliana; details: 0.5 mM SA, 0.1 mM INA
Protocol: The M2 seeds were germinated on MS medium with the addition of 0.8% agar, 0.5 mg/mL Mes (2-(N-morpholino)ethane-sulfonic acid), pH 5.7, 2% sucrose, 50 μg/mL kanamycin, and 100 μg/mL ampicillin. […] After incubation for fifteen days, each seedling to be assayed was numbered, and a single leaf was then removed from each seedling and put into the corresponding sample well of a ninety-six-well microtiter plate that contained 100 μL of […] (GUS) substrate solution (50 mM Na2HPO4, pH 7.0, 10 mM Na2EDTA, 0.1% Triton X-100, 0.1% sarkosyl, 0.7 μL/mL β-mercaptoethanol, and 0.7 mg/mL 4-methylumbelliferyl β-D-glucuronide). After all the samples were collected, the microtiter plate was placed under vacuum for two minutes to infiltrate the samples and then incubated at 37° C. overnight. Samples were examined for the fluorescent product of GUS activity (4-methylumbellifone) using a long-wavelength UV light. […] This procedure was repeated in the progeny of these putative mutants to ensure that the mutant phenotype was heritable and to identify the homozygous mutants.
To measure accurately the level of GUS activity, a quantitative GUS assay was performed on npr1-1 plants and the wild-type BGL2-GUS plants grown in the presence of either SA or INA, or in the absence of both. In the absence of an inducer, the background level of GUS activity was five-fold lower in the npr1-1 mutant than in the wild-type. […] Moreover, the induction by 0.1 mM INA was forty-eight-fold for the wild-type versus five-fold for npr1-1. Thus, while GUS activity in the SA- or INA-treated npr1-1 plants was somewhat induced, the activity was at most only slightly higher than the background level of the untreated wild-type.

[2] = system: Pseudomonas syringae pv maculicola ES4326; assay: SA-/INA-induced protection against P.s. maculicola ES4326 infection (disease symptoms); assay type: in vivo; details: 1 mM SA or 0.65 mM INA two days before P.s. maculicola ES4326; for plants with chlorotic lesions: npr1-1 plants; for plants showing slight yellowing: wild-type plants
Protocol: To examine whether the lack of SA- or INA-induced PR gene expression would affect SAR protection against a virulent pathogen infection, fifteen-day-old wild-type and npr1-1 plants were treated with either 1 mM SA or 0.65 mM INA, and two days later were exposed to a P.s. maculicola ES4326 bacterial suspension. […] Chlorotic lesions developed in about ninety percent of the untreated wild-type control plants not pretreated with SA or INA. However, such SA- or INA-induced protection was not observed in npr1-1 mutant plants. Chlorotic lesions were clearly seen in over ninety-percent of untreated and at least eighty-percent of SA- or INA-treated plants. The symptoms on npr1-1 were also more severe than on the wild-type plants.

O=C(O)c1ccccc1O [SA, salicylic acid]
localization of NPR1-GFP upon induction (NPR1-GFP): exclusively in the nuclei of both the mesophyll cells and the guard cells
growth of P.s. maculicola ES4326 lower than the untreated control [1]: 1000 times
growth of P.s. maculicola ES4326 [1]: about ten
effect of treatment alone on plants (no infection) (Arabidopsis thaliana): minimal effect
induction of PR1 gene expression (PR1 gene; npr1-2 mutant): only a minor induction
induction of PR1 gene expression (PR1 gene; wild-type parental line): high level of PR1 gene induction
increase in GUS activity compared to the uninduced plants (BGL2-GUS reporter gene; npr1-1 plants): seven
increase in GUS activity compared to the uninduced plants (BGL2-GUS reporter gene; wild-type BGL2-GUS plants): fifty-two
plants with chlorotic lesions [2]: at least eighty
plants showing slight yellowing [2]: less than ten

O=C(O)c1cc(Cl)nc(Cl)c1 [INA, 2,6-dichloroisonicotinic acid]
localization of NPR1-GFP upon induction (NPR1-GFP): exclusively in the nuclei of both the mesophyll cells and the guard cells
decrease in Psm ES4326 growth ([1]; npr1-2 mutant, 0.65 mM INA seventy-two hours prior to infection): ~10 fold
growth of P.s. maculicola ES4326 lower than the untreated control [1]: 1000 times
growth of P.s. maculicola ES4326 [1]: about ten
inhibition of Psm ES4326 growth ([1]; wild-type plants, 0.65 mM INA seventy-two hours prior to infection (OD600=0.001)): Complete inhibition
effect of treatment alone on plants (no infection) (Arabidopsis thaliana): minimal effect
induction of PR1 gene expression (PR1 gene; npr1-2 mutant): no induction
induction of PR1 gene expression (PR1 gene; wild-type parental line): induction
increase in GUS activity compared to the uninduced plants (BGL2-GUS reporter gene; npr1-1 plants): five
increase in GUS activity compared to the uninduced plants (BGL2-GUS reporter gene; wild-type BGL2-GUS plants): forty-eight
plants with chlorotic lesions [2]: at least eighty
plants showing slight yellowing [2]: less than ten
